This is an account of results in patent US20070265164A1, “Active Substances for Increasing Pathogenic Defense in Plants and Methods for the Detection Thereof” (Bayer Cropscience GmbH, priority 2004, published 2007).

Structures are written as SMILES.

Type in all cases: in vivo
Common to all, as to design: fold induction: dose or concentration left out as unconfirmed
Common to all, as to details: for fold induction: rates of Table 1 (S7 500)

For experiment [1], the system named is Contig9556_at, 12-oxophytodienoate reductase 3. Nature of the experiment: GEP, barley DNA chip, probe set 1.8. The protocol: (§1) Barley plants (cv. Baronesse) were grown in compost-filled pots (diameter: 10 cm) for 10 days in a controlled-environment cabinet under defined light, humidity and temperature conditions (white light, 70% atmospheric humidity, 24° C.). At the time of spray application, the seedlings were approximately 15 cm in size. The test substances selected in this example were molecules which differ markedly in their structure and which have a well documented pronounced safener effect, and other molecules which are known from the literature to have an effect on plant stress and pathogen tolerance (Table 1). The substances were prepared as stock solutions in DMSO (dimethyl sulfoxide) at c=10 mg/ml). This was used for preparing dilutions in water supplemented with 0.2% Agrotin (comprises polyvinyl alcohol, silicones, polysaccharides and pH regulators, manufacturer: Bayer CropScience AG, Monheim, Germany), as wetter, to give the application rates shown in the table. The amount of liquid for the spray application was 800 μl per pot, corresponding to 800 l/ha. For each 800 μl of spray mixture, 16 μl of EC premix: diacetone alcohol=1:6 were additionally added as formulation auxiliaries. The substances listed in Table 1 were applied to the leaves by means of a pneumatic spray pistol. Each substance was sprayed as 2 dosages, and all experiments were carried out as replicates (2 pots per substance). Sprayings with blank formulation without active ingredient were carried out as controls. After 6 hours, the leaves were harvested, frozen in liquid nitrogen and stored at −80° C. until further use. The labeled RNA probes for the DNA chip hybridization were prepared as described in the protocols (Expression Analysis, Technical Manual) from Affymetrix (Affymetrix Inc., 3380 Central Expressway, Santa Clara, Calif., USA). First, total RNA was isolated from in each case 500 mg of the harvested leaves. In each case 10 μg of total RNA was used for the first-strand and second-strand cDNA synthesis. The cDNA was amplified with T7 polymerase and simultaneously labeled with biotin-UTP. In each case, 20 μg of this biotinylated cDNA was employed for the hybridization of the barley genome array (Gene Chip Barleyl, order No.: 511012) from Affymetrix. This DNA microarray comprises DNA sequences of 22 840 genes which are composed of a total of 400 000 EST sequences. Thereafter, the DNA microarrays were washed in the Affymetrix Fluidics Station, stained with streptavidin/phycoerythrin (Molecular Probes, P/N S-866) and scanned with the matching Agilent Laser Scanner (Agilent Gene Array Scanner). The fluorescent data obtained were analyzed with the software Microarray Suite 5 from Affymetrix. After the quality had been checked, all DNA chip analyses were stored in a database. To determine the relative expression values for genes (induction factors, repression factors), test and control chips were compared with each other, and the scoring function set by the Affymetrix software was used as the basis. The 2 biological replications of one experiment were compared in each case with 2 control chips (blank formulation), and the 4 expression values obtained for each gene were used for calculating the median. These medians are shown in the results tables as induction factors. Similarity comparisons of expression profiles from different experiments and cluster analyses were carried out using the software GeneMaths 1.5 from Applied Maths (Applied Maths, Keistraat 120, 9830 Sint-Martens-Latem, Belgium).
(§2) Gene groups from specific metabolic pathways and signal transduction chains were put together by key word search in the annotations, of the genes, which were also provided by Affymetrix, and by Blast analyses (homology comparisons) of the DNA target sequences, i.e. of the positive sequence (identified on the basis of a modified expression profile) identified on the DNA chip, using gene sequences from other organisms, preferably plant organisms, with characterized functions. […]

Experiment [2] deals with Contig5146_at, Probable 12-oxophytodienoate reductase (EC 1.3.1.42). The experiment can be described thus: GEP, barley DNA chip, probe set 1.4. As for the experimental part:
as §1, §2

Experiment [3] concerns Contig10030_at, Putative lipase homolog. Nature of the experiment: GEP, barley DNA chip, probe set 1.13. The protocol:
as §1, §2

In experiment [4] the test system is Contig2326_s_at, 12-oxophytodienoic acid reductase. The experiment can be described thus: GEP, barley DNA chip, probe set 1.18. As for the experimental part: as §1, §2
For experiment [5], the system named is Contig2992_s_at, Chitinase (EC 3.2.1.14). The experiment can be described thus: GEP, barley DNA chip, probe set 5.2. The protocol: as §1, §2
The subject of experiment [6] is Contig34_s_at, Putative proteinase inhibitor. Nature of the experiment: GEP, barley DNA chip, probe set 2.2. The protocol:
as §1, §2

Experiment [7] relates to Contig1737_at, Probable lipoxygenase. The experiment can be described thus: GEP, barley DNA chip, probe set 1.15. As for the experimental part:
as §1, §2

Experiment [8] relates to Contig5369_at, Pathogen-related protein. The experiment can be described thus: GEP, barley DNA chip, probe set 4.2. The protocol: as §1, §2
Experiment [9] deals with Contig5023_at, Class III chitinase. The experiment can be described thus: GEP, barley DNA chip, probe set 5.3. The protocol:
as §1, §2

For experiment [10], the system named is Contig12574_at, Putative lipoxygenase. Nature of the experiment: GEP, barley DNA chip, probe set 1.11. The protocol:
as §1, §2

In experiment [11] the test system is Contig5607_s_at, Pathogen-related protein (PirT06168). Nature of the experiment: GEP, barley DNA chip, probe set 4.3. As for the experimental part: as §1, §2
Experiment [12] deals with Contig3097_at, Allene oxide synthase. Nature of the experiment: GEP, barley DNA chip, probe set 1.3. As for the experimental part:
as §1, §2

For experiment [13], the system named is Contig2330_x_at, 12-oxophytodienoic acid reductase. The experiment can be described thus: GEP, barley DNA chip, probe set 1.19. The protocol: as §1, §2
The mark [14] stands for this setting: barley leaves 6 h after spray application, rates of Table 1 (150 g a.i./ha, S7 500), median induction factor vs control.
Where [15] appears, read: Hordeum vulgare, topical, barley leaves 6 h after spray application, median induction factor vs control, read-out: Expression value, 1.8 Contig9556_at.
The mark [16] stands for this setting: Hordeum vulgare, topical, barley leaves 6 h after spray application, median induction factor vs control, read-out: Expression value, 1.4 Contig5146_at.
Where [17] appears, read: Hordeum vulgare, topical, barley leaves 6 h after spray application, median induction factor vs control, read-out: Expression value, 1.13 Contig10030_at.
Setting [18] is: Hordeum vulgare, topical, barley leaves 6 h after spray application, median induction factor vs control, read-out: Expression value, 1.18 Contig2326_s_at.
[19] abbreviates: Hordeum vulgare, topical, barley leaves 6 h after spray application, median induction factor vs control, read-out: Expression value, 5.2 Contig2992_s_at.
[20] abbreviates: Hordeum vulgare, topical, barley leaves 6 h after spray application, median induction factor vs control, read-out: Expression value, 2.2 Contig34_s_at.
The mark [21] stands for this setting: Hordeum vulgare, topical, barley leaves 6 h after spray application, median induction factor vs control, read-out: Expression value, 1.15 Contig1737_at.
The mark [22] stands for this setting: Hordeum vulgare, topical, barley leaves 6 h after spray application, median induction factor vs control, read-out: Expression value, 4.2 Contig5369_at.
Where [23] appears, read: Hordeum vulgare, topical, barley leaves 6 h after spray application, median induction factor vs control, read-out: Expression value, 5.3 Contig5023_at.
The mark [24] stands for this setting: Hordeum vulgare, barley leaves 6 h after spray application, median induction factor vs control, read-out: Expression value, 1.11 Contig12574_at.
[25] abbreviates: Hordeum vulgare, topical, barley leaves 6 h after spray application, median induction factor vs control, read-out: Expression value, 4.3 Contig5607_s_at.
The mark [26] stands for this setting: Hordeum vulgare, topical, barley leaves 6 h after spray application, median induction factor vs control, read-out: Expression value, 1.3 Contig3097_at.
Setting [27] is: Hordeum vulgare, topical, barley leaves 6 h after spray application, median induction factor vs control, read-out: Expression value, 1.19 Contig2330_x_at.

With `O=C(NO)c1ccccc1O` [S7, Salicyl hydroxamate], the “Expression value, 1.8 Contig9556_at” value in experiment [1] (setting [14]) was determined as 1.00 x times. In addition, in experiment [2] (setting [14]), the “Expression value, 1.4 Contig5146_at” value was determined as 1.00 x times. Also, the “Expression value, 1.13 Contig10030_at” value in experiment [3] (setting [14]) was determined as 1.00 x times. Moreover, in [4] (setting [14]), the “Expression value, 1.18 Contig2326_s_at” value was determined as 1.00 x times. Also, in [5] (setting [14]), the “Expression value, 5.2 Contig2992_s_at” value amounted to 1.00 x times. Further, in experiment [6] (setting [14]), the “Expression value, 2.2 Contig34_s_at” value is on record as 4.50 x times. The “Expression value, 1.15 Contig1737_at” value in experiment [7] (setting [14]) was 1.00 x times. For the same compound, in experiment [8] (setting [14]), the “Expression value, 4.2 Contig5369_at” value is reported as 1.00 x times. The “Expression value, 5.3 Contig5023_at” value in [9] (setting [14]) was 1.00 x times. In experiment [10] (setting [14]), the “Expression value, 1.11 Contig12574_at” value was found to be 1.00 x times. Also, in experiment [11] (setting [14]), the “Expression value, 4.3 Contig5607_s_at” value was determined as 1.00 x times. The “Expression value, 1.3 Contig3097_at” value in experiment [12] (setting [14]) was found to be 1.00 x times. The “Expression value, 1.19 Contig2330_x_at” value in experiment [13] (setting [14]) came to 1.00 x times.

For `CSC(=O)c1cccc2nnsc12` [S8, Acibenzolar-S-methyl], the fold induction in [1] (setting [15]) stood at 1; in [2] (setting [16]), 1; in experiment [3] (setting [17]) it was 1; in [4] (setting [18]) it was 1; in experiment [5] (setting [19]), 1; in experiment [6] (setting [20]) it was 3.68. Besides, the fold induction was determined as 1 in experiment [7] (setting [21]); 1 in experiment [8] (setting [22]); 1 in experiment [9] (setting [23]); 2.11 in [10] (setting [24]); 1 in experiment [11] (setting [25]); 2.11 in experiment [12] (setting [26]). The fold induction in experiment [13] (setting [27]) is 1.

As to `O=C(O)c1cc(Cl)nc(Cl)c1` [S9], the fold induction at 150 g/ha was found to be 1 in experiment [1] (Hordeum vulgare, topical, 6 h, read-out: Expression value, 1.8 Contig9556_at); 1 in experiment [2] (Hordeum vulgare, topical, 6 h, read-out: Expression value, 1.4 Contig5146_at); 1 in experiment [3] (Hordeum vulgare, topical, 6 h, read-out: Expression value, 1.13 Contig10030_at); 1 in experiment [4] (Hordeum vulgare, topical, 6 h, read-out: Expression value, 1.18 Contig2326_s_at); 2.14 in experiment [5] (Hordeum vulgare, topical, 6 h, read-out: Expression value, 5.2 Contig2992_s_at); 1 in experiment [6] (Hordeum vulgare, topical, 6 h, read-out: Expression value, 2.2 Contig34_s_at). Also, the fold induction at 150 g/ha in [7] (Hordeum vulgare, topical, 6 h, read-out: Expression value, 1.15 Contig1737_at) turned out to be 1; in [8] (Hordeum vulgare, topical, 6 h, read-out: Expression value, 4.2 Contig5369_at), 1; in experiment [9] (Hordeum vulgare, topical, 6 h, read-out: Expression value, 5.3 Contig5023_at), 4.56; in [10] (Hordeum vulgare, 6 h, read-out: Expression value, 1.11 Contig12574_at), 1; in experiment [11] (Hordeum vulgare, topical, 6 h, read-out: Expression value, 4.3 Contig5607_s_at), 1; in experiment [12] (Hordeum vulgare, topical, 6 h, read-out: Expression value, 1.3 Contig3097_at) it was 1. In experiment [13] (Hordeum vulgare, topical, 6 h, read-out: Expression value, 1.19 Contig2330_x_at), the fold induction at 150 g/ha is 1.

On to `O=C(O)c1cc(Cl)cc(Cl)c1O` [S10], for which the fold induction is 1 in experiment [1] (setting [15]); 1 in experiment [2] (setting [16]); 1 in [3] (setting [17]); 1 in [4] (setting [18]); 1 in [5] (setting [19]); 2.08 in [6] (setting [20]). The fold induction in experiment [7] (setting [21]), in experiment [8] (setting [22]), in [9] (setting [23]), in experiment [10] (setting [24]), in [11] (setting [25]) and in [12] (setting [26]) was 1 each time. Further, the fold induction in experiment [13] (setting [27]) is 1.
